# Results taken from PMC10745721, “Chemical Comparison and Identification of Xanthine Oxidase Inhibitors of Dioscoreae Hypoglaucae Rhizoma and Dioscoreae Spongiosae Rhizoma by Chemometric Analysis and Spectrum–Effect Relationship” (Molecules, 2023).
# Biological target: xanthine oxidase (Bos taurus, UniProt P80457)
# Test: xanthine oxidase inhibitory assay in vitro (absorbance at 295 nm, uric acid from xanthine)
# Assay type: biochemical
# Conditions: pure compounds, five concentrations each; read-out: IC50 of xanthine oxidase inhibition
# Method: For xanthine oxidase inhibition assay, 600 μL of supernatant was concentrated in a Termovap Sample Concentrator (Hangzhou Miulab Instruments Co., Ltd., Hangzhou, China) at 30 °C until elimination of solvent. The residue was redissolved in 600 μL PBS.
# The xanthine oxidase inhibitory activities of DH and DS samples were determined by xanthine oxidase inhibitory activity assay in vitro [25], which was based on the increase in absorbance at 295 nm due to the production of uric acid from xanthine. In brief, 50 µL of DH or DS samples, 30 µL of phosphate buffer (70 Mm, pH 7.5), and 40 µL of xanthine oxidase (0.05 U/mL) were added into a 96-well plate. After preincubation at 25 °C for 8 min, 60 µL of xanthine (300 µM) was added. After incubation at 25 °C for 15 min, the reaction was stopped by adding 20 µL of HCl (1.0 M). The absorbance of the mixture solution was recorded at 295 nm by a microplate reader.
# The control sample was prepared by adding PBS instead of tested sample. The background sample was prepared by replacing tested sample with the same volume of PBS. The blank sample was prepared by adding PBS instead of xanthine oxidase solution. All experiments were repeated three times. The inhibition ratio of xanthine oxidase was calculated as follows:Inhibition ratio (%) = [1 − (test sample-background sample/control sample-blank sample)] × 100
# DH and DS samples were prepared in a series of concentrations. The xanthine oxidase inhibitory activities of DH and DS samples were evaluated by IC50 values (the concentration of the sample inhibited 50% the activity of the xanthine oxidase, and the IC50 values were calculated by a logarithmic regression curve. As DH and DS samples were mixtures of multiple constituents, the molar concentrations were uncertain. Thus, the IC50 values of anti-xanthine oxidase activities of DH and DS samples were expressed as mg/mL raw drug equivalents.
# Chain of xanthine oxidase (P80457 whole entry): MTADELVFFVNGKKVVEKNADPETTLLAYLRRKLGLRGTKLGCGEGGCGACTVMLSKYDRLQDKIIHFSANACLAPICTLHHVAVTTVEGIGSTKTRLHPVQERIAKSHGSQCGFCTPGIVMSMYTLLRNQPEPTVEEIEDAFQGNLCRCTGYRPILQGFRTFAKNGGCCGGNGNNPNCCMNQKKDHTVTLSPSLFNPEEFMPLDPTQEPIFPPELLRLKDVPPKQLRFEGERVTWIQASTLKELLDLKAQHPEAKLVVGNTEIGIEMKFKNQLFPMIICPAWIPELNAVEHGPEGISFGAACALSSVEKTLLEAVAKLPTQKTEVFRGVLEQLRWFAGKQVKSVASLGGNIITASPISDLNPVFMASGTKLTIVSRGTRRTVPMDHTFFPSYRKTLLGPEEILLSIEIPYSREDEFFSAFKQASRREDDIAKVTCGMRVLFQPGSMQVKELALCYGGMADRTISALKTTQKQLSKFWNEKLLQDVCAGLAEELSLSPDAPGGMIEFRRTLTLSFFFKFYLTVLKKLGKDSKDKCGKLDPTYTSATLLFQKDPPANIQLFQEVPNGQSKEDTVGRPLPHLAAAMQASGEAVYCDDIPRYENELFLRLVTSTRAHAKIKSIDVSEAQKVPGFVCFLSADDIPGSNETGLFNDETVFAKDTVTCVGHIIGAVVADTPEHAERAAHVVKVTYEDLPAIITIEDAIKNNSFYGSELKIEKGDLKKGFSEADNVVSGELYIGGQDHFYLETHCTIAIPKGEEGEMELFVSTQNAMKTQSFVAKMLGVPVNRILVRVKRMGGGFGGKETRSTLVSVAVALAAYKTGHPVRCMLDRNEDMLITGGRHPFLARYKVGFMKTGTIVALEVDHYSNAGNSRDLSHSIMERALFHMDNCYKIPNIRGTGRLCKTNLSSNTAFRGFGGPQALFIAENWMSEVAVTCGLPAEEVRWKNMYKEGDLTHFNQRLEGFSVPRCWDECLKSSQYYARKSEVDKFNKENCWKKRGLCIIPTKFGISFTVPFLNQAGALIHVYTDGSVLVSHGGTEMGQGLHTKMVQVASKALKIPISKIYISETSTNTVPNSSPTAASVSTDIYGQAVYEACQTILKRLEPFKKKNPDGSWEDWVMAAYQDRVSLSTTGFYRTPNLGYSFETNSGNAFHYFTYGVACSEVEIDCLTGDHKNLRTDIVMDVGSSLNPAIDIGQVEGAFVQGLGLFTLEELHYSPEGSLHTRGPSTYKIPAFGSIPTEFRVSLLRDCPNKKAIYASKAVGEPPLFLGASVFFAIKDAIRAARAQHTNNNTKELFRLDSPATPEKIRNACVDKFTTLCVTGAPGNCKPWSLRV
row,Compound,IC50 [µM]
1,CO[C@]1(CC[C@@H](C)CO[C@@H]2O[C@H](CO)[C@@H](O)[C@H](O)[C@H]2O)O[C@H]2C[C@H]3[C@@H]4CC=C5C[C@@H](O[C@@H]6O[C@H](CO)[C@@H](O[C@@H]7O[C@@H](C)[C@H](O)[C@@H](O)[C@H]7O)[C@H](O)[C@H]6O[C@@H]6O[C@@H](C)[C@H](O)[C@@H](O)[C@H]6O)CC[C@]5(C)[C@H]4CC[C@]3(C)[C@H]2[C@@H]1C [methyl protodioscin],220
2,CC(CCC1(O)OC2CC3C4CC=C5CC(OC6OC(CO)C(OC7OC(C)C(O)C(O)C7O)C(O)C6OC6OC(C)C(O)C(O)C6O)CCC5(C)C4CCC3(C)C2C1C)COC1OC(CO)C(O)C(O)C1O (stereo not shown) [protodioscin],200
3,CC1=C(CC[C@@H](C)CO[C@@H]2O[C@H](CO)[C@@H](O)[C@H](O)[C@H]2O)OC2CC3C4CC=C5CC(O[C@@H]6O[C@H](CO)[C@@H](O)[C@H](O[C@@H]7O[C@H](CO)[C@@H](O)[C@H](O)[C@H]7O)[C@H]6O[C@@H]6O[C@@H](C)[C@H](O)[C@@H](O)[C@H]6O)CC[C@]5(C)C4CC[C@]3(C)C12 (stereo partly shown) [pseudoprogracillin],250
4,CC(CCC1(O)OC2CC3C4CC=C5CC(OC6OC(CO)C(O)C(OC7OC(CO)C(O)C(O)C7O)C6OC6OC(C)C(O)C(O)C6O)CCC5(C)C4CCC3(C)C2C1C)COC1OC(CO)C(O)C(O)C1O (stereo not shown) [protogracillin],190
